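These data come from cells grown in 96-well plates and exposed to compound for 48 hours at five concentrations. The concentration for 50% growth inhibition is given as GI50. TGI denotes the concentration required for complete inhibition of growth.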
How the values were obtained:
Test in all cases: DTP human tumour cell line panel, 48 h
786-0 renal = system: 786-0 renal
A498 renal = system: A498 renal
A549 NSCLC = system: A549 NSCLC
ACHN renal = system: ACHN renal
BT-549 breast = system: BT-549 breast
CAKI-1 renal = system: CAKI-1 renal
CCRF-CEM leukemia = system: CCRF-CEM leukemia
COLO 205 colon = system: COLO 205 colon
DU-145 prostate = system: DU-145 prostate
EKVX NSCLC = system: EKVX NSCLC
HCC-2998 colon = system: HCC-2998 colon
HCT-116 colon = system: HCT-116 colon
HCT-15 colon = system: HCT-15 colon
HL-60(TB) leukemia = system: HL-60(TB) leukemia
HOP-62 NSCLC = system: HOP-62 NSCLC
HOP-92 NSCLC = system: HOP-92 NSCLC
HS 578T breast = system: HS 578T breast
HT29 colon = system: HT29 colon
IGROV1 ovarian = system: IGROV1 ovarian
K-562 leukemia = system: K-562 leukemia
KM12 colon = system: KM12 colon
LOX IMVI melanoma = system: LOX IMVI melanoma
M14 melanoma = system: M14 melanoma
MALME-3M melanoma = system: MALME-3M melanoma
MCF7 breast = system: MCF7 breast
MDA-MB-231 breast = system: MDA-MB-231 breast
MDA-MB-435 = system: MDA-MB-435
MOLT-4 leukemia = system: MOLT-4 leukemia
NCI-H226 lung = system: NCI-H226 lung

Compound `CCOc1ccc(C(=O)Nc2ncc(Cc3ccc(F)cc3)s2)cc1` has a GI50 (786-0 renal) of 340 nM, a TGI (786-0 renal) of over 54500 nM and a GI50 (A498 renal) of over 34000 nM. For the same compound, the TGI (A498 renal) was over 90500 nM, the GI50 (A549 NSCLC) was 257 nM and the TGI (A549 NSCLC) was over 100000 nM. The GI50 (ACHN renal) was 455 nM, the TGI (ACHN renal) was over 100000 nM and the GI50 (BT-549 breast) was 1730 nM. For the same compound, the TGI (BT-549 breast) was over 100000 nM, the GI50 (CAKI-1 renal) was 74.9 nM and the TGI (CAKI-1 renal) was over 44200 nM. For the same compound, the GI50 (CCRF-CEM leukemia) was 108 nM, the TGI (CCRF-CEM leukemia) was over 52700 nM and the GI50 (COLO 205 colon) was 164 nM. For the same compound, the GI50 (DU-145 prostate) was 387 nM, the TGI (DU-145 prostate) was over 100000 nM and the GI50 (EKVX NSCLC) was 347 nM. It also gave a TGI (EKVX NSCLC) of over 100000 nM, a GI50 (HCC-2998 colon) of 213 nM and a TGI (HCC-2998 colon) of over 100000 nM. It also gave a GI50 (HCT-116 colon) of 93 nM, a TGI (HCT-116 colon) of over 100000 nM and a GI50 (HCT-15 colon) of 49.4 nM. It also gave a TGI (HCT-15 colon) of over 100000 nM, a GI50 (HL-60(TB) leukemia) of 52 nM and a TGI (HL-60(TB) leukemia) of 4680 nM. For the same compound, the GI50 (HOP-62 NSCLC) was 309 nM, the TGI (HOP-62 NSCLC) was over 50000 nM and the GI50 (HOP-92 NSCLC) was 8750 nM. It also gave a TGI (HOP-92 NSCLC) of over 86100 nM, a GI50 (HS 578T breast) of 399 nM and a TGI (HS 578T breast) of over 39300 nM. It also gave a GI50 (HT29 colon) of 77.1 nM, a GI50 (IGROV1 ovarian) of 409 nM and a TGI (IGROV1 ovarian) of over 100000 nM. It also gave a GI50 (K-562 leukemia) of 44.3 nM, a TGI (K-562 leukemia) of over 100000 nM and a GI50 (KM12 colon) of 83.6 nM. The TGI (KM12 colon) was over 100000 nM, the GI50 (LOX IMVI melanoma) was 145 nM and the TGI (LOX IMVI melanoma) was over 100000 nM. For the same compound, the GI50 (M14 melanoma) was 94.1 nM, the TGI (M14 melanoma) was over 100000 nM and the GI50 (MALME-3M melanoma) was 1130 nM. For the same compound, the TGI (MALME-3M melanoma) was over 100000 nM, the GI50 (MCF7 breast) was 53.7 nM and the TGI (MCF7 breast) was over 100000 nM. The GI50 (MDA-MB-231 breast) was 371 nM, the TGI (MDA-MB-231 breast) was over 86100 nM and the GI50 (MDA-MB-435) was 22.1 nM. For the same compound, the TGI (MDA-MB-435) was 55.1 nM, the GI50 (MOLT-4 leukemia) was 151 nM and the TGI (MOLT-4 leukemia) was over 100000 nM. For the same compound, the GI50 (NCI-H226 lung) was 319 nM and the TGI (NCI-H226 lung) was 7630 nM.

— PubChem BioAssay (NCI)
